PMC9834240, “Senescent cells perturb intestinal stem cell differentiation through Ptk7 induced noncanonical Wnt and YAP signaling” (Nature Communications, 2023)
Several values for one entry are separate records, joined by “and”; a condition that tells them apart may be missing. Equal values may be shown once.

What was measured:
Type in all cases: cell-based
[1] = test system: mouse intestinal organoids; assay: cystic organoid percentage, organoids in conditioned media (SCM/QCM) with or without inhibitors or antibodies; settings: for cystic organoid percentage: DMSO = 0; for effect on cystic organoid phenotype: SCM-exposed organoids; for percentage of cystic organoids: Fig. 3c, dialyzed, individual mice, n = 3
Procedure: Twenty-four hours before collecting conditioned media (CM), MEFs were washed with serum-free DMEM twice, and serum-free DMEM was added. After 24 h in serum-free DMEM, this CM was collected, filtered using Steriflip filters (Millipore, #SE1M179M6) to remove cell debris, and concentrated using centrifugal filter units (Amicon ultra-15 centricon; Millipore, # UFC900324). […] CM was filtered and dialyzed for 24–48 h to remove the inhibitors before concentration.
(§1) The jejunum part of the small intestine was removed, flushed with PBS, opened longitudinally, then cut into 0.5 cm pieces. The collected tissues were washed with ice cold PBS multiple times by vortexing and incubated in PBS containing 2.5 mM EDTA for 5 min at 37 °C. After gentle shaking and aspiration, tissues were incubated in PBS containing 5 mM EDTA for 7 min at 37 °C. Tissues were then washed with PBS to remove EDTA and vigorously shaken to release crypts. The released crypts were passed through 70 μm strainers, washed with PBS, and pelleted by centrifugation at 200 × g.
(§2) 3-4 biological replicates of organoids from different mice were used per condition. Organoids were cultured in the indicated media, inhibitors, antibodies and/or recombinant proteins for 5 d and fixed in 4% formaldehyde in PBS. Organoids were imaged with a 4× Plan Fluor objective (NA: 0.13, Nikon) on a Nikon Ti-E inverted microscope equipped with a Neo scMOS camera (Andor, Oxford Instruments), a linear encoded automated stage (Applied Scientific Instrumentation), all run by NIS Elements software (Nikon). Organoids were imaged in brightfield and images covering the whole well were stitched and focused into one image projection with an extended depth of focus module (EDF; Nikon). One hundred to 200 organoids per replicate per condition were counted and used for quantification. The number of budding organoids in each condition was normalized by the number of budding organoids in untreated or DMSO treated controls to calculate cystic organoid percentage:1 Cysticorganoidpercentage=100×1−Numberofbuddingorganoidsfromexperiment/Numberofbuddingorganoidsfromcontrol

[2] = test system: mouse intestinal organoids; assay: inhibition of Wnt5a-induced cystic organoids; parameters: key to cystic organoids (sheet SF.5b): % cystic = 100×(1 − budding organoids treated/control); settings: relative to Untreated = 0
Procedure: as §1, with “g. Resuspended crypts were mixed with Matrigel (Corning, #356231; Lot#8218007) and pipetted into culture plates. After mixture of crypts and Matrigel solidified, IntestiCult Organoid Growth Medium (Stem Cell Technologies, #06005; Lots #1000021927, #1000034230, #1000037372) was added. Seven days after seeding, organoids were resuspended in dissociation buffer (Gentle Cell Dissociation Reagent; Stem Cell Technologies, #07174), dissociated by pipetting, and seeded for experiments.” for “g.”
as §2

[3] = test system: mouse intestinal organoids; assay: cystic organoid percentage, co-culture with quiescent or senescent intestinal fibroblasts; parameters: key: % = 100×(1 − budding organoids treated/budding organoids control); settings: relative to DMSO = 0
Procedure: as §2
Mouse intestinal fibroblasts were purchased from Cell Biologics (#C57-6231) and cultured in Complete Fibroblast Medium (Cell Biologics, M2267) at 37 °C and 5% CO2. Cellular quiescence and senescence in mouse intestinal fibroblasts were induced by the similar methods described earlier for MEFs with minor modifications. Briefly, cellular quiescence was induced by culturing the fibroblasts in low serum (0.5% FBS), and cellular senescence was induced by 500 nM doxorubicin treatment for 5 days (doxorubicin; Sigma-Aldrich, #44583). Once cellular quiescence or senescence was induced, MEFs were maintained at 37 °C, 5% CO2, and 3% O2 for another 5 days. The quiescent or senescent fibroblasts were dissociated using 0.05% Trypsin-EDTA (Gibco, #25300-054) and counted for seeding. The same number of quiescent and senescent fibroblasts (5.2 × 10^4 cells) were mixed with intestinal organoids making total volume of 20 μl of Matrigel: organoid culture media mix, which was mounted on a 48 well plate.

## CN([C@@H](Cc1ccc(OS(=O)(=O)c2cccc3cnccc23)cc1)C(=O)N1CCN(c2ccccc2)CC1)S(=O)(=O)c1cccc2cnccc12 [KN62]
[1]; Fig.5l, 10uM, no conditioned medium, replicate 1
  cystic organoid percentage: 0.2849
[1]; Fig.5l, 10uM, no conditioned medium, replicate 2
  cystic organoid percentage: -0.03848
[1]; Fig.5l, 10uM, no conditioned medium, replicate 3
  cystic organoid percentage: 4.343
[1]; Fig.5l, QCM + 10uM, replicate 1
  cystic organoid percentage: -7.21
[1]; Fig.5l, QCM + 10uM, replicate 2
  cystic organoid percentage: -3.018
[1]; Fig.5l, QCM + 10uM, replicate 3
  cystic organoid percentage: -12.8255
[1]; Fig.5l, SCM + 10um, replicate 1
  cystic organoid percentage: -3.501
[1]; Fig.5l, SCM + 10um, replicate 2
  cystic organoid percentage: 1.186
[1]; Fig.5l, SCM + 10um, replicate 3
  cystic organoid percentage: 0.111

## O=C(CSc1nc2c(c(=O)n1-c1ccccc1)SCC2)Nc1ccc(-c2ccccc2)cn1 [IWP-L6]
[1]; SF.3d, SCM + inhibitor, replicate 1
  cystic organoid percentage: 46.6221
[1]; SF.3d, SCM + inhibitor, replicate 2
  cystic organoid percentage: 58.2456
[1]; SF.3d, SCM + inhibitor, replicate 3
  cystic organoid percentage: 31.9347

## O=C(CCl)c1ccccc1Nc1cccc(C(F)(F)F)c1 [TED347]
[1]; Fig.7e, 2 uM, no conditioned medium, replicate 1
  cystic organoid percentage: -4.167
[1]; Fig.7e, 2 uM, no conditioned medium, replicate 2
  cystic organoid percentage: 2.041
[1]; Fig.7e, 2 uM, no conditioned medium, replicate 3
  cystic organoid percentage: 3.815
[1]; Fig.7e, QCM + 2 uM, replicate 1
  cystic organoid percentage: 3.646
[1]; Fig.7e, QCM + 2 uM, replicate 2
  cystic organoid percentage: 2.9703
[1]; Fig.7e, QCM + 2 uM, replicate 3
  cystic organoid percentage: -0.09671
[1]; Fig.7e, SCM + 2 uM, replicate 1
  cystic organoid percentage: 13.1944
[1]; Fig.7e, SCM + 2 uM, replicate 2
  cystic organoid percentage: 21.2963
[1]; Fig.7e, SCM + 2 uM, replicate 3
  cystic organoid percentage: 18.1818
[1]
  effect on cystic organoid phenotype: reduced the percentage of cystic organoids

## CN1CCN(CCCN2c3ccccc3Sc3ccc(C(F)(F)F)cc32)CC1 [Trifluoperazine A]
[2]; 100 nM Trifluoperazine A, no Wnt5a, replicate 1
  cystic organoids (sheet SF.5b): 1.842
[2]; 100 nM Trifluoperazine A, no Wnt5a, replicate 2
  cystic organoids (sheet SF.5b): -0.6895
[2]; 100 nM Trifluoperazine A, no Wnt5a, replicate 3
  cystic organoids (sheet SF.5b): -1.481
[2]; 100 nM Trifluoperazine A, no Wnt5a, replicate 4
  cystic organoids (sheet SF.5b): 3.596
[2]; 1 uM Trifluoperazine A, no Wnt5a, replicate 1
  cystic organoids (sheet SF.5b): -0.2581
[2]; 1 uM Trifluoperazine A, no Wnt5a, replicate 2
  cystic organoids (sheet SF.5b): -2.568
[2]; 1 uM Trifluoperazine A, no Wnt5a, replicate 3
  cystic organoids (sheet SF.5b): -0.6142
[2]; 1 uM Trifluoperazine A, no Wnt5a, replicate 4
  cystic organoids (sheet SF.5b): -2.171
[2]; Wnt5a + 100 nM Trifluoperazine A, replicate 1
  cystic organoids (sheet SF.5b): 12.7683
[2]; Wnt5a + 100 nM Trifluoperazine A, replicate 2
  cystic organoids (sheet SF.5b): 12.5989
[2]; Wnt5a + 100 nM Trifluoperazine A, replicate 3
  cystic organoids (sheet SF.5b): 11.621
[2]; Wnt5a + 100 nM Trifluoperazine A, replicate 4
  cystic organoids (sheet SF.5b): 16.7645
[2]; Wnt5a + 1 uM Trifluoperazine A, replicate 1
  cystic organoids (sheet SF.5b): 9.106
[2]; Wnt5a + 1 uM Trifluoperazine A, replicate 2
  cystic organoids (sheet SF.5b): 10.2184
[2]; Wnt5a + 1 uM Trifluoperazine A, replicate 3
  cystic organoids (sheet SF.5b): 3.882
[2]; Wnt5a + 1 uM Trifluoperazine A, replicate 4
  cystic organoids (sheet SF.5b): 10.8434

## CNC(=O)[C@H](Cc1c[nH]c2ccccc12)NC(=O)[C@@H](CC(=O)NO)CC(C)C [GM6001]
[1]; SCM from MEFs exposed to GM6001 (20 uM, 24 h)
  percentage of cystic organoids: 29.2391% and 41.0714% and 39.5302%

## O=C(O)c1ccc2c3c1cccc3c(=O)n1c3ccccc3nc21 [STO609]
[1]; Fig.5l, 5uM, no conditioned medium, replicate 1
  cystic organoid percentage: -8.274
[1]; Fig.5l, 5uM, no conditioned medium, replicate 2
  cystic organoid percentage: -5.955
[1]; Fig.5l, 5uM, no conditioned medium, replicate 3
  cystic organoid percentage: -8.683
[1]; Fig.5l, QCM + 5uM, replicate 1
  cystic organoid percentage: -3.426
[1]; Fig.5l, QCM + 5uM, replicate 2
  cystic organoid percentage: 1.872
[1]; Fig.5l, QCM + 5uM, replicate 3
  cystic organoid percentage: -3.616
[1]; Fig.5l, SCM + 5um, replicate 1
  cystic organoid percentage: 16.8399
[1]; Fig.5l, SCM + 5um, replicate 2
  cystic organoid percentage: 8.659
[1]; Fig.5l, SCM + 5um, replicate 3
  cystic organoid percentage: 6.694

## cyclosporin A
[1]
  effect on cystic organoid phenotype: had no effect on this phenotype
[3]; 1 uM CsA, no fibroblasts, replicate 1
  cystic organoids (sheet SF.5d): -0.1051
[3]; 1 uM CsA, no fibroblasts, replicate 2
  cystic organoids (sheet SF.5d): -6.5368
[3]; 1 uM CsA, no fibroblasts, replicate 3
  cystic organoids (sheet SF.5d): 5.663
[3]; Q + 1um CsA (quiescent fibroblasts), replicate 1
  cystic organoids (sheet SF.5d): 19.8791
[3]; Q + 1um CsA (quiescent fibroblasts), replicate 2
  cystic organoids (sheet SF.5d): 16.6126
[3]; Q + 1um CsA (quiescent fibroblasts), replicate 3
  cystic organoids (sheet SF.5d): 9.858
[3]; SEN + 1uM CsA (senescent fibroblasts), replicate 1
  cystic organoids (sheet SF.5d): 45.7387
[3]; SEN + 1uM CsA (senescent fibroblasts), replicate 2
  cystic organoids (sheet SF.5d): 66.7022
[3]; SEN + 1uM CsA (senescent fibroblasts), replicate 3
  cystic organoids (sheet SF.5d): 42.5108

## CC(C)C[C@H](CC(=O)NO)C(=O)N[C@@H](Cc1ccc2ccccc2c1)C(=O)N[C@@H](C)C(=O)NCCN [TAPI-1]
[1]; SCM from MEFs exposed to TAPI-1 (50 uM, 24 h)
  percentage of cystic organoids: 21.6102% and 25.641% and 30.6707%

## Verteporfin
[1]
  effect on cystic organoid phenotype: strongly reduced the cystic organoid percentage
